# According to patent publication US20090208747A1, “Novel Crystalline Methods and Novel Crystalline and Amorphous forms of Halogenated Sugars” (V.B. MEDICARE PVT. LTD, priority 2006, published 2009):
# Where two headings read alike, the source gives them in different places.
# Legend:
# [1] = Analysis against JECFA specifications: solubility; format: physicochemical; settings: in ethyl acetate
# [2] = Particle size analysis; settings: for particle size distribution at 90%: 90% of particles below this size
# Procedure: The TGS crystals obtained were tested for purity and particle size.
# The solids obtained were tested for purity, particle size and X ray diffraction for the nature of solid obtained.
# [3] = Stability testing as per ICH Guideline Q1A(R2), storage stability; format: physicochemical
# Text: Stability testing was done as per ICH Harmonised Tripaertite Guideline Stability Testing of New drug substances and Products Q1A(R2) issued by International Conference on Hamonization of technical requirements for registration of pharmaceuticals for human use and recommended for adoption at Step 4 of the ICH Process on 6 Feb.
# Details are given on table nos 1 to 4 given in the following: […]
# [4] = Accelerated stability test, sealed containers incubated at 50° C.; format: physicochemical; settings: sealed container; for Assay (%) / PH: listed as Crystalline TGS crystallized from butanol:methanol mixture
# Procedure: For extrapolating potential storage stability beyond one year, an accelerated storage stability test was conducted. In this test, crystalline TGS of small and large mean particle size was incubated at 50° C. in sealed containers. Percent assay and pH were tested after each 24 hours for five successive days. […] A three days' stability in accelerated stability test is extrapolated by Catani et al (2005) to 8 years of storage stability at ambient temperature.
# All the three samples were taken in sealed containers and were incubated at 50° C. […]
# [5] = 25° C. ± 2° C. 60% RH ± 5% RH, 1st month
# [6] = 25° C. ± 2° C. 60% RH ± 5% RH, 2nd month
# [7] = 25° C. ± 2° C. 60% RH ± 5% RH, 3rd month
# [8] = 25° C. ± 2° C. 60% RH ± 5% RH, 4th month
# [9] = 25° C. ± 2° C. 60% RH ± 5% RH, 5th month
# [10] = 25° C. ± 2° C. 60% RH ± 5% RH, 6th month
# [11] = 25° C. ± 2° C. 60% RH ± 5% RH, 12th month
# [12] = 25° C. ± 2° C. 60% RH ± 5% RH, 24th month
# [13] = 25° C. ± 2° C. 60% RH ± 5% RH, INITIAL
# [14] = 30° C. ± 2° C. 65% RH ± 5% RH, 1st month
# [15] = 30° C. ± 2° C. 65% RH ± 5% RH, 2nd month
# [16] = 30° C. ± 2° C. 65% RH ± 5% RH, 3rd month
# [17] = 30° C. ± 2° C. 65% RH ± 5% RH, 4th month
# [18] = 30° C. ± 2° C. 65% RH ± 5% RH, 5th month
# [19] = 30° C. ± 2° C. 65% RH ± 5% RH, 6th month
# [20] = 30° C. ± 2° C. 65% RH ± 5% RH, 12th month
# [21] = 30° C. ± 2° C. 65% RH ± 5% RH, 24th month
# [22] = 30° C. ± 2° C. 65% RH ± 5% RH, INITIAL
# [23] = 40° C. ± 2° C. 75% RH ± 5% RH, 1st month
# [24] = 40° C. ± 2° C. 75% RH ± 5% RH, 2nd month
# [25] = 40° C. ± 2° C. 75% RH ± 5% RH, 3rd month
# [26] = 40° C. ± 2° C. 75% RH ± 5% RH, 4th month
# [27] = 40° C. ± 2° C. 75% RH ± 5% RH, 5th month
# [28] = 40° C. ± 2° C. 75% RH ± 5% RH, 6th month
# [29] = 40° C. ± 2° C. 75% RH ± 5% RH, 12th month
# [30] = 40° C. ± 2° C. 75% RH ± 5% RH, 24th month
# [31] = 40° C. ± 2° C. 75% RH ± 5% RH, INITIAL
smiles,measurement,setting,value
"OC[C@H]1O[C@H](O[C@]2(CCl)O[C@H](CCl)[C@@H](O)[C@@H]2O)[C@H](O)[C@@H](O)[C@H]1Cl [Crystalline TGS small particle size, 1′-6′-Dichloro-1′-6′-DIDEOXY-β-Fructofuranasyl-4-chloro-4-deoxy-galactopyranoside]",Solubility,[1],water. Slightly
same,mean particle size,[2],about 4.2 micron
same,particle size distribution at 90%,[2]; listed as Example 2,below 10 microns
same,particle size distribution at 90%,[2]; listed as crystallized product,< 10 microns
same,mean particle size,[2]; listed as Example 2,4.2 micron
same,Appearance,[3]; [5],Normal
same,Assay,[3]; [5],99.02%
same,Specific Rotation,[3]; [5],+85.99°
same,Water content,[3]; [5],0.73%
same,Appearance,[3]; [6],Normal
same,Assay,[3]; [6],99.04%
same,Specific Rotation,[3]; [6],+84.63°
same,Water content,[3]; [6],0.63%
same,Appearance,[3]; [7],Normal
same,Assay,[3]; [7],99.05%
same,Specific Rotation,[3]; [7],+85.31°
same,Water content,[3]; [7],0.22%
same,Appearance,[3]; [8],Normal
same,Specific Rotation,[3]; [8],+84.20°
same,Water content,[3]; [8],0.41%
same,Appearance,[3]; [9],Normal
same,Assay,[3]; [9],98.42%
same,Specific Rotation,[3]; [9],+87.22°
same,Water content,[3]; [9],0.17%
same,Appearance,[3]; [10],Normal
same,Assay,[3]; [10],99.07%
same,Specific Rotation,[3]; [10],+86.78°
same,Water content,[3]; [10],0.23%
same,Appearance,[3]; [11],Normal
same,Assay,[3]; [11],99.02%
same,Specific Rotation,[3]; [11],+85.93°
same,Water content,[3]; [11],0.33%
same,Appearance,[3]; [12],Normal
same,Assay,[3]; [12],98.78%
same,Specific Rotation,[3]; [12],+84.63°
same,Water content,[3]; [12],0.53%
same,Appearance,[3]; [13],Normal
same,Specific Rotation,[3]; [13],+86.07°
same,Water content,[3]; [13],0.52%
same,Appearance,[3]; [14],Normal
same,Specific Rotation,[3]; [14],+86.01°
same,Water content,[3]; [14],0.69%
same,Appearance,[3]; [15],Normal
same,Specific Rotation,[3]; [15],+85.11°
same,Water content,[3]; [15],0.19%
same,Appearance,[3]; [16],Normal
same,Assay,[3]; [16],100.62%
same,Specific Rotation,[3]; [16],+86.29°
same,Water content,[3]; [16],0.28%
same,Appearance,[3]; [17],Normal
same,Assay,[3]; [17],99.95%
same,Specific Rotation,[3]; [17],+86.67°
same,Water content,[3]; [17],0.24%
same,Appearance,[3]; [18],Normal
same,Assay,[3]; [18],99.88%
same,Specific Rotation,[3]; [18],+87.58°
same,Water content,[3]; [18],0.18%
same,Appearance,[3]; [19],Normal
same,Assay,[3]; [19],99.43%
same,Specific Rotation,[3]; [19],+84.35°
same,Water content,[3]; [19],0.42%
same,Appearance,[3]; [20],Normal
same,Specific Rotation,[3]; [20],+85.62°
same,Water content,[3]; [20],0.66%
same,Appearance,[3]; [21],Normal
same,Assay,[3]; [21],98.82%
same,Specific Rotation,[3]; [21],+86.73°
same,Water content,[3]; [21],0.70%
same,Appearance,[3]; [22],Normal
same,Specific Rotation,[3]; [22],+86.07°
same,Water content,[3]; [22],0.52%
same,Appearance,[3]; [23],Normal
same,Assay,[3]; [23],99.06%
same,Specific Rotation,[3]; [23],+86.01°
same,Water content,[3]; [23],0.73%
same,Appearance,[3]; [24],Normal
same,Assay,[3]; [24],99.04%
same,Specific Rotation,[3]; [24],+86°
same,Water content,[3]; [24],1.10%
same,Appearance,[3]; [25],Normal
same,Specific Rotation,[3]; [25],+85.16°
same,Water content,[3]; [25],0.27%
same,Appearance,[3]; [26],Normal
same,Specific Rotation,[3]; [26],+85.81°
same,Water content,[3]; [26],0.22%
same,Appearance,[3]; [27],Normal
same,Assay,[3]; [27],98.96%
same,Specific Rotation,[3]; [27],+85.74°
same,Water content,[3]; [27],0.20%
same,Appearance,[3]; [28],Normal
same,Assay,[3]; [28],98.82%
same,Specific Rotation,[3]; [28],+82.67°
same,Water content,[3]; [28],0.49%
same,Appearance,[3]; [29],Normal
same,Assay,[3]; [29],98.75%
same,Specific Rotation,[3]; [29],+86.01°
same,Water content,[3]; [29],0.73%
same,Appearance,[3]; [30],Normal
same,Assay,[3]; [30],98.52%
same,Specific Rotation,[3]; [30],+86°
same,Water content,[3]; [30],1.10%
same,Appearance,[3]; [31],Normal
same,Specific Rotation,[3]; [31],+86.07°
same,Water content,[3]; [31],0.52%
same,stability in storage,"[3]; storage, listed as crystalline TGS of this invention",stable in storage for one year
same,Assay (%),[4]; First day,99.2%
same,PH,[4]; First day,7.90
same,Assay (%),[4]; Fourth day,99.12%
same,PH,[4]; Fourth day,7.62
same,percent assay as well as pH,[4]; over the test period,stable
